Experimental data: article PMC2690642 (Journal of neurochemistry, 2008)
pEC50, pIC50, pKd: −log10 of the molar value. One block for each compound: values may come before it.

Legend:
[1] = target: T1, NR1-R (E181Q) (Rattus norvegicus, UniProt P35439, E181Q); test: biochemical
[2] = target: NR1-R (Rattus norvegicus, UniProt P35439); test: Circular dichroism; assay type: binding
[3] = target: ovalbumin (Gallus gallus, UniProt P01012); conditions: control, unrelated protein
[4] = target: NR2A-R (Rattus norvegicus, UniProt Q00959); test: Circular dichroism; assay type: binding
Chain of NR2A-R (Q00959 23-389): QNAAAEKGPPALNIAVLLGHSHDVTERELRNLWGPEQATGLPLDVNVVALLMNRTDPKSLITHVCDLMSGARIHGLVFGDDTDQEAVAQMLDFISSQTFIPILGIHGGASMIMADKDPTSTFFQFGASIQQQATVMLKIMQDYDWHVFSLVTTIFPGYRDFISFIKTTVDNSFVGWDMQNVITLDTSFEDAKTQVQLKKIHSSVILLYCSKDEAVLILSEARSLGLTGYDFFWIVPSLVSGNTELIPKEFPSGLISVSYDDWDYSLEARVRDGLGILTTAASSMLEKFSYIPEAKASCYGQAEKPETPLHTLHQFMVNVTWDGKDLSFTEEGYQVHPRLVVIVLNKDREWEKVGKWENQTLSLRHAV

[5] = target: T1, NR1-R (E181Q)
[6] = target: T2, NR2B-R (regulatory domain of NMDA receptor NR2B subunit) (Rattus norvegicus, UniProt Q00960); test: [14C]spermine filter binding to purified NR2B-R; conditions: for [14C]Spermine bound to NR2B-R in presence of addition, %: 40 µM [14C]spermine, % of binding with no addition; for Effect of aminoglycoside on spermine binding to NR2B-R: 20 µM [14C]spermine, aminoglycosides 75 to 300 µM (Fig. 10)
T2 sequence (Q00960 27-390): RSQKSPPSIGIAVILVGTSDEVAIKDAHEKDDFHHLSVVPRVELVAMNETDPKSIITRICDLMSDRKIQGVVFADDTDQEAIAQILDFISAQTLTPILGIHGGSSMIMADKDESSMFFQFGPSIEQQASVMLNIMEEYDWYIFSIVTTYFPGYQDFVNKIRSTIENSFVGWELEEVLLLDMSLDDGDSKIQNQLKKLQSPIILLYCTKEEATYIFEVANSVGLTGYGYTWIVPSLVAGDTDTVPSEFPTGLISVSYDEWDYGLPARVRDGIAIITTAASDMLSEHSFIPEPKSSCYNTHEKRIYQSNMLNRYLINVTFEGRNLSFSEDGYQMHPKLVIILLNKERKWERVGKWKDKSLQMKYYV

[7] = target: T2, NR2B-R (regulatory domain of NMDA receptor NR2B subunit); test: [3H]ifenprodil filter binding to purified NR2B-R; conditions: for [3H]Ifenprodil bound to NR2B-R in presence of addition, %: 0.4 µM [3H]ifenprodil, % of binding with no addition
[8] = target: NR2B-R (Rattus norvegicus, UniProt P35439+Q00960); test: Circular dichroism; assay type: binding
Chain of NR2B-R (Q00960 27-390, one chain of several): as the sequence (Q00960 27-390) above

[9] = target: T3, NR2A-R (regulatory domain of NMDA receptor NR2A subunit) (Rattus norvegicus, UniProt Q00959); test: [14C]spermine filter binding to purified NR2A-R; conditions: for Effect of aminoglycoside on spermine binding to NR2A-R: 20 µM [14C]spermine, aminoglycosides 75 to 300 µM (Fig. 10)
T3 sequence (Q00959 23-389): as the sequence (Q00959 23-389) above

[10] = target: T4, NR1-R (regulatory domain of NMDA receptor NR1 subunit) (Rattus norvegicus, UniProt P35439); test: [14C]spermine filter binding to purified NR1-R; conditions: for Effect of aminoglycoside on spermine binding to NR1-R: 20 µM [14C]spermine, aminoglycosides 75 to 300 µM (Fig. 10)
[11] = target: NR1/NR2B receptors (Rattus norvegicus, UniProt P35439+Q00960); test: Voltage clamp recording in Xenopus oocytes expressing NR1/NR2B
Chain of NR1/NR2B receptors (Rattus norvegicus, UniProt P35439+Q00960) (Q00960 27-1482, other chains not shown): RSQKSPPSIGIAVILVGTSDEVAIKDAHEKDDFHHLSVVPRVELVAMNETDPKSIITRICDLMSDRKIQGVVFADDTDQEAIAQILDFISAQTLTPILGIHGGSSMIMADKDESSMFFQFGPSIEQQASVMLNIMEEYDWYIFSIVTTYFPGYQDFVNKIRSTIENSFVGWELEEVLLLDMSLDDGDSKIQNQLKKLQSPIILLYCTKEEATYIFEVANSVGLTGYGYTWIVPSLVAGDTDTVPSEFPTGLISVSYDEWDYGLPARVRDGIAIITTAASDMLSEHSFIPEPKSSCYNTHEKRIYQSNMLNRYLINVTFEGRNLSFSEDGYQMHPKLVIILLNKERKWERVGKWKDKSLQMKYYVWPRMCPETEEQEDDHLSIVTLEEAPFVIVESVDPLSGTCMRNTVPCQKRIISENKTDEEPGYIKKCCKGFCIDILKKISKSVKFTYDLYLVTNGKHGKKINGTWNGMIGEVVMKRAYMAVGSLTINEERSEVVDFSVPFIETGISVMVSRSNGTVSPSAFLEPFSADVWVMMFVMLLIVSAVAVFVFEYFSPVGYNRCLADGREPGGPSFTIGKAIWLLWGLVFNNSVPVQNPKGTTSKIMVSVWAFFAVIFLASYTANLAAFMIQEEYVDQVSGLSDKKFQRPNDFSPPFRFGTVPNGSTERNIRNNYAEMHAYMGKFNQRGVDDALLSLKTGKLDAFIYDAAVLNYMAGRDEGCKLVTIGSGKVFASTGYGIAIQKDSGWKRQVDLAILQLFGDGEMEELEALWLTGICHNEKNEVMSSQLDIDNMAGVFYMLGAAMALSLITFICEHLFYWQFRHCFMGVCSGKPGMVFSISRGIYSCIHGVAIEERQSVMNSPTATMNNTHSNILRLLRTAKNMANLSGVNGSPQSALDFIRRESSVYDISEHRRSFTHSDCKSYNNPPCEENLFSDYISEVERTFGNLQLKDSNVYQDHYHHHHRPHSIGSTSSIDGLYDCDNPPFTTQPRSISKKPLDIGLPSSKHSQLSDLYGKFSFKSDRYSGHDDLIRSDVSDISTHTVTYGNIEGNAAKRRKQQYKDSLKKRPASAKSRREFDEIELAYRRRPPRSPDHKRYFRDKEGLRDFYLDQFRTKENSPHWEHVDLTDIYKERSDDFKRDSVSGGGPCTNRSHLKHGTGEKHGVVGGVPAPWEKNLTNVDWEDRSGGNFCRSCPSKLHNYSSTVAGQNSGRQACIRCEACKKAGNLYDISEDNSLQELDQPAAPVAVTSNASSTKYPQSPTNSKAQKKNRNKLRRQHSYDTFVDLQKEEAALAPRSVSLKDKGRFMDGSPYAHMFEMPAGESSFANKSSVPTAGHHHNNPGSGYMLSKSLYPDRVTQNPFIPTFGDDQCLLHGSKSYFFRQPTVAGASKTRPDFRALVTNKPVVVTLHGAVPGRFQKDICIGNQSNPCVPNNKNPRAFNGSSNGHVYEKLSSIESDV

[12] = target: NR1/NR2A receptors (Rattus norvegicus, UniProt P35439+Q00959); test: Voltage clamp recording in Xenopus oocytes expressing NR1/NR2A
Chain of NR1/NR2A receptors (Q00959 23-1464, other chains not shown): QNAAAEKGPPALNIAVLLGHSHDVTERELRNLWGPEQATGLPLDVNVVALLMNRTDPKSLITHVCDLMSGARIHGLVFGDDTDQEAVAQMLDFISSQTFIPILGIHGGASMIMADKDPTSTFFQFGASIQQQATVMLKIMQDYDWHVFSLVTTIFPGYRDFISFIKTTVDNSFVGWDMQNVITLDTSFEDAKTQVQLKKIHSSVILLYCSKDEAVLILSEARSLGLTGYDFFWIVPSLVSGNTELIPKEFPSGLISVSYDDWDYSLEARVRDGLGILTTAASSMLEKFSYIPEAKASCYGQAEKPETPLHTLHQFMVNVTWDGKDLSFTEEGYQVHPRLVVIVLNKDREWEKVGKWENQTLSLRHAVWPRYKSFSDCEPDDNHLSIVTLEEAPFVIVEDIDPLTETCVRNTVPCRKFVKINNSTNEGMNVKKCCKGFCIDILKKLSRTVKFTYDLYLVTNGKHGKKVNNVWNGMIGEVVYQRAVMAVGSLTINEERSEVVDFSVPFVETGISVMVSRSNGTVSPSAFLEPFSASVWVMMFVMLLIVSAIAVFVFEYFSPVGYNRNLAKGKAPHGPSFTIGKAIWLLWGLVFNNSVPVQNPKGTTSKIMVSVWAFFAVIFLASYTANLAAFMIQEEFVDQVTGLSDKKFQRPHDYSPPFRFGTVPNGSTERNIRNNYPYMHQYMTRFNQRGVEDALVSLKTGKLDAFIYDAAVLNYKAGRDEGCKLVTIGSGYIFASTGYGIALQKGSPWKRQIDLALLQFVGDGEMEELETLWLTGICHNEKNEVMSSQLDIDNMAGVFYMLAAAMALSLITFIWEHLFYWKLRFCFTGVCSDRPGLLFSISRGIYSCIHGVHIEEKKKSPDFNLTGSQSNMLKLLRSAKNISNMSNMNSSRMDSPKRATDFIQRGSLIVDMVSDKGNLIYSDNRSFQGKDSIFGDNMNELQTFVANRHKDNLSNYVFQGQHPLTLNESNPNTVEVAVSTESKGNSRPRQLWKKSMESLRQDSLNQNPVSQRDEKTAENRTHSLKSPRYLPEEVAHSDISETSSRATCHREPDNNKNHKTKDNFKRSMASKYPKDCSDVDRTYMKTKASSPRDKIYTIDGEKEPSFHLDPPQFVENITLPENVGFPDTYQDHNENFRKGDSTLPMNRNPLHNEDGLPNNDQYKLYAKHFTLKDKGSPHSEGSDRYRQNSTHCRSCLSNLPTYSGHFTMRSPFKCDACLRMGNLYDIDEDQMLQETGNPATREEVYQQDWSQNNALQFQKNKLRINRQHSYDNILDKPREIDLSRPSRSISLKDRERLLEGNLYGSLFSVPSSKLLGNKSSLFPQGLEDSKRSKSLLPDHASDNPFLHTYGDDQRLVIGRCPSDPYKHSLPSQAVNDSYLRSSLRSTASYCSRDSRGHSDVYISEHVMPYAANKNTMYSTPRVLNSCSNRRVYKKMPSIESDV

[13] = target: NR1/NR2B receptors; conditions: read-out: IC50 for ifenprodil inhibition at intact, functional NR1/NR2B receptors; pH 7.6; ref Williams 1993; cited from earlier work
[14] = target: T3, NR2A-R (regulatory domain of NMDA receptor NR2A subunit); test: [3H]ifenprodil filter binding to purified NR2A-R; conditions: 0.1 to 0.8 µM [3H]ifenprodil
[15] = target: T4, NR1-R (regulatory domain of NMDA receptor NR1 subunit); test: [3H]ifenprodil filter binding to purified NR1-R

Chain of ovalbumin (P01012 whole entry, species assumed): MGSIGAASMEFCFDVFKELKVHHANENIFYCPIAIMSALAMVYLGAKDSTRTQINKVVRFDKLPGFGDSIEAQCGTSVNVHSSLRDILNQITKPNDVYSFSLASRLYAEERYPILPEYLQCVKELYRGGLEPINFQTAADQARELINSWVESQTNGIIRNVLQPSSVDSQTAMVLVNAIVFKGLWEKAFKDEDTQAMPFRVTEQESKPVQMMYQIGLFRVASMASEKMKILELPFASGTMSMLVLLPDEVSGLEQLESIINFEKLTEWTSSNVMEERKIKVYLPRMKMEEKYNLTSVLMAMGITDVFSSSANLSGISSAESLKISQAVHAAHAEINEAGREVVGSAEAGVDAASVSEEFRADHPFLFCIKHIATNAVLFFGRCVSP

Compound: NCCCNCCCCNCCCN [spermine]
pKd [1]: 4.13
pKd [2]: 4.70
Binding of spermine to ovalbumin [3]: little binding
pKd [4]: 3.88
Binding of spermine to E181Q mutant compared to wild-type NR1-R [5]: reduced
Bmax of spermine binding, NR2B-R, equivalent [6]: 0.32 mol/mol R domain
Hill coefficient for spermine binding to NR2B-R [6]: close to unity
[14C]Spermine bound to NR2B-R in presence of addition, % [6]: 7%
pKd ([6]; Kd of spermine at NR2B-R calculated from k1 and k−1, from rate constants): 4.59
Bmax of spermine binding, NR2B-R ([6]; Scatchard plot): 7.3 nmol/mg R domain protein
Dissociation rate constant k−1 of [14C]spermine at NR2B-R ([6]; after addition of nonlabeled 3 mM spermine): 0.22 min⁻¹
Association rate constant k1 of [14C]spermine at NR2B-R ([6]; average at 12.5, 25 and 50 µM [14C]spermine): 8,500 M^−1·min^−1
[3H]Ifenprodil bound to NR2B-R in presence of addition, % [7]: 99%
pKd [8]: 4.46
Bmax of spermine binding, NR2A-R, equivalent [9]: 0.29 mol/mol R domain
Hill coefficient for spermine binding to NR2A-R [9]: close to unity
pKd [9]: 3.85
Bmax of spermine binding, NR2A-R ([9]; Scatchard plot): 6.9 nmol/mg R domain protein
Affinity for spermine lower at NR2A R domain compared to NR2B R domain ([9]; ratio of Kd): 4 fold
Bmax of spermine binding, NR1-R, equivalent [10]: 0.24 mol/mol R domain
Hill coefficient for spermine binding to NR1-R [10]: close to unity
pKd [10]: 4.72
Bmax of spermine binding, NR1-R ([10]; Scatchard plot): 6.3 nmol/mg R domain protein
pEC50 [11]: 4.11
Hill coefficient for spermine at NR1/NR2B ([11]; oocytes, −20 mV): 1.05
pEC50 [12]: 3.56
Hill coefficient for spermine at NR1/NR2A ([12]; oocytes, −20 mV): 1.17

Effect of aminoglycoside on spermine binding to NR2B-R [6]: inhibited
Effect of aminoglycoside on spermine binding to NR2A-R [9]: inhibited
Effect of aminoglycoside on spermine binding to NR1-R [10]: inhibited
Compound: NC[C@@H]1O[C@H](O[C@H]2[C@@H](O)[C@H](O[C@@H]3[C@@H](O)[C@H](N)C[C@H](N)[C@H]3O[C@H]3O[C@H](CN)[C@@H](O)[C@H](O)[C@H]3N)O[C@@H]2CO)[C@H](N)[C@@H](O)[C@@H]1O [neomycin B]

[14C]Spermine bound to NR2B-R in presence of addition, % [6]: 6%
[3H]Ifenprodil bound to NR2B-R in presence of addition, % [7]: 98%
Compound: NCCCCNCCCN [Spermidine, spermidine]

Effect of aminoglycoside on spermine binding to NR2B-R [6]: inhibited
Effect of aminoglycoside on spermine binding to NR2A-R [9]: inhibited
Effect of aminoglycoside on spermine binding to NR1-R [10]: inhibited
Compound: NC[C@@H]1O[C@H](O[C@H]2[C@@H](O)[C@H](O[C@@H]3[C@@H](O)[C@H](N)C[C@H](N)[C@H]3O[C@H]3O[C@H](CO)[C@@H](O)[C@H](O)[C@H]3N)O[C@@H]2CO)[C@H](N)[C@@H](O)[C@@H]1O [paromomycin]

Compound: CC(C(O)c1ccc(O)cc1)N1CCC(Cc2ccccc2)CC1 (stereo not shown) [ifenprodil]
pIC50 [13]: 6.47
Change in the CD spectra of NR2A-R ([4]; 2 µM ifenprodil): no change
Specific binding of [3H]ifenprodil to NR2A-R [14]: no specific binding
[14C]Spermine bound to NR2B-R in presence of addition, % [6]: 108%
Bmax of ifenprodil binding, NR2B-R [7]: 5.2 nmol/mg R domain protein
Bmax of ifenprodil binding, NR2B-R, equivalent [7]: 0.21 mol/mol R domain protein
Hill coefficient for binding of ifenprodil to NR2B-R [7]: ~1.0
[3H]Ifenprodil bound to NR2B-R in presence of addition, % [7]: 15%
Bmax of ifenprodil binding, NR1-R [15]: 5.6 nmol/mg R domain protein
Bmax of ifenprodil binding, NR1-R, equivalent [15]: 0.24 mol/mol R domain protein
Hill coefficient for binding of ifenprodil to NR1-R [15]: ~1.0

Compound: NCC(=O)O [Glycine, glycine]
[3H]Ifenprodil bound to NR2B-R in presence of addition, % [7]: 102%

Effect of aminoglycoside on spermine binding to NR2B-R [6]: inhibited
Effect of aminoglycoside on spermine binding to NR2A-R [9]: inhibited
Effect of aminoglycoside on spermine binding to NR1-R [10]: inhibited
Compound: [H]/N=C(/N)N[C@H]1[C@H](O)[C@@H](O)[C@H](O[C@@H]2O[C@@H](C)[C@](O)(C=O)[C@H]2O[C@@H]2O[C@@H](CO)[C@H](O)[C@@H](O)[C@@H]2NC)[C@@H](N/C(N)=N\[H])[C@@H]1O [streptomycin]

Compound: N[C@@H](CCC(=O)O)C(=O)O [Glutamate, glutamate]
[14C]Spermine bound to NR2B-R in presence of addition, % [6]: 102%
[3H]Ifenprodil bound to NR2B-R in presence of addition, % [7]: 103%

Compound: kanamycin A
Effect of aminoglycoside on spermine binding to NR2B-R [6]: inhibited
Effect of aminoglycoside on spermine binding to NR2A-R [9]: inhibited
Effect of aminoglycoside on spermine binding to NR1-R [10]: inhibited
